Source: publication PMC5623190, “Target Identification of Mycobacterium tuberculosis Phenotypic Hits Using a Concerted Chemogenomic, Biophysical, and Structural Approach” (Frontiers in Pharmacology, 2017)
Converted amounts (≈) assume the structure as drawn. “And” between values parts separate entries of the source, which are not always exact repeats. Equal entries are not always repeated. Where two headings read alike, the source gives them in different places.

Key:
[1] = system: Mycobacterium tuberculosis H37Rv; parameters: method as in Ballell et al., 2013; conditions: M. tuberculosis whole cell; ref Ballell et al., 2013; cited from earlier work
[2] = target: M. tuberculosis EthR (Mycobacterium tuberculosis, UniProt P9WMC1); assay: Surface plasmon resonance assay of EthR binding to ethA promoter DNA; conditions: for LE (ligand efficiency): ligand efficiency for EthR inhibition
Procedure: The surface plasmon resonance (SPR) assay was performed on a BIAcore T100 with a protocol similar to what was previously described (Surade et al., [2014]). […] For the initial screening a single run was performed for each compound. A 2 μM EthR solution was then incubated individually with each of the compounds at 100 μM, in 2 mM MgCl2, 10 mM TRIS/HCL pH 7.5, 200 mM NaCl, 0.1 mM EDTA, and 2% DMSO and flowed over the chip at 20 μl/min for 120 s. For dissociation 150 s were given using the same flow rate. Binding was determined by subtracting the response of the control channel from the experimental channel at steady-state. Regeneration of the chip was performed between samples by flowing 0.03% SDS in running buffer for 60 s at 20 μl/min. […] Data were analyzed in Prism 5 (Graphpad software) and IC50 were calculated using a non-linear regression model. Dose response experiments were performed in triplicate.

[3] = target: InhA (Mycobacterium tuberculosis, UniProt P9WGR1); assay: InhA spectrophotometric enzymatic assay (NADH oxidation, 2-trans-octanoyl-CoA); assay type: biochemical; conditions: compound at 100 μM, 100 nM InhA, triplicate
Procedure: InhA activity was assessed by a spectrophotometric assay that followed the oxidation of NADH at λ = 340 nm in the presence of 2-trans-octanoyl-CoA. Compounds were dissolved in 100% DMSO. The enzyme reaction contains 30 mM PIPES pH 7.5, 50 mM NaCl, 1% (v/v) DMSO and 0.1 mM EDTA. InhA (100 nM) was pre-incubated for 10 min at room temperature with 0.25 mM NADH and compounds at a final concentration of 100 μM in 150 μl reaction volume. The reaction is started by the addition of 2-trans-octanoyl-CoA at a final concentration of 1.5 mM, prepared as described previously (He et al., [2006]). The reactions were followed for 20 min using a spectrophotometer plate reader (CLARIOstar—BMG LABTECH). Inhibition percentage was calculated based on the initial rates of reaction. All experiments were performed in triplicate.

[4] = IC50, SPR dose response 0.78-100 μM, triplicate, table head prints no unit, μM
[5] = SPR dose response 0.78-100 μM, triplicate, table head prints no unit, μM, read-out: IC50
[6] = inhibition of EthR binding to ethA promoter DNA

M. tuberculosis EthR, sequence (P9WMC1 whole entry, looked up): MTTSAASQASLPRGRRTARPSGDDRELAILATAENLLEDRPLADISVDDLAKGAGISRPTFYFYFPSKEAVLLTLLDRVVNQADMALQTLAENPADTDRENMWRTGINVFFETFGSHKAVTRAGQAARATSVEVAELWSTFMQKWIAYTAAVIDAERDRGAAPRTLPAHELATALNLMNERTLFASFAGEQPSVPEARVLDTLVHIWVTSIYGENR
InhA, sequence (P9WGR1 whole entry, looked up): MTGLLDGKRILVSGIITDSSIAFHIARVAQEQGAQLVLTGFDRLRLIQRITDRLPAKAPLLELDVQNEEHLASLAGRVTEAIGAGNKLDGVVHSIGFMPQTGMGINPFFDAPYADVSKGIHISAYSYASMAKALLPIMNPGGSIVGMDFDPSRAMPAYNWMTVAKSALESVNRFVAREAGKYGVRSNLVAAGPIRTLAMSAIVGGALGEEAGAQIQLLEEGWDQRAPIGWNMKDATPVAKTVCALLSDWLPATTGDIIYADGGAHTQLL

| Compound | MIC [1] | inhibition at 100 µM [2] | IC50 [2, 4] | LE (ligand efficiency) [2] | further results |
| --- | --- | --- | --- | --- | --- |
| O=C(NC1=NCCS1)c1sc2cc(F)ccc2c1Cl [Compound 1] | 8.6 µM (≈ 2.71 µg/mL) | 100% | ~12 µM and 12 µM | 0.35 | – |
| O=C(Cc1ccc(F)cc1)Nc1nc(-c2ccccn2)cs1 [Compound 2] | 9.3 µM (≈ 2.91 µg/mL) | 100% | 9.9 µM | 0.31 | – |
| Nc1ccccc1Nc1ccc2c(c1)OCO2 [Compound 12] | 1.8 µM (≈ 0.411 µg/mL) | 67% | – | – | IC50 ([2]; SPR IC50 (µM), inhibition of EthR binding to ethA promoter DNA): > 100 µM |
| CCc1ccc(Nc2nnc(SCc3cc(C)on3)s2)cc1 [Compound 8] | 2.8 µM (≈ 0.931 µg/mL) | 92.8% | – | – | inhibition at 100 µM [3]: > 40% |
| Fc1ccc2nc(Nc3nc(-c4ccccn4)cs3)sc2c1 [Compound 6] | 2.3 µM (≈ 0.755 µg/mL) | 97% | 22 µM | 0.30 | – |
| Clc1ccc(Nc2nc(-c3ccccn3)cs2)nc1 [Compound 5] | 5.9 µM (≈ 1.7 µg/mL) | 99% | – | – | – |
| CSc1ccc(C(=O)Nc2nc(-c3ccccn3)cs2)cc1 [Compound 10] | 8.7 µM (≈ 2.85 µg/mL) | 74% | – | – | – |
| c1ccc(-c2csc(Nc3nc4cc5c(cc4s3)OCO5)n2)nc1 [Compound 4] | 2.7 µM (≈ 0.957 µg/mL) | – | – | 0.28 | IC50 [2, 5]: ~13 µM and 13 µM; Inhibition (100 μM) (%) ([2]; SPR, inhibition of EthR binding to DNA, compound at 100 μM, 2 μM EthR, single run): 100% |
| N=C(Nc1nc(-c2ccccn2)cc2ccccc12)c1cccc(Cl)c1 [GSK381407a] | – | – | – | – | SPR Inhibition (%) [2, 6]: 59% |
| CCCCS(=O)(=O)Nc1ccc2cnn(C)c2c1 [GSK3011724a] | – | – | – | – | SPR Inhibition (%) [2, 6]: 28% |
| O=C(C1CCN(c2nnc(-n3cccc3)s2)CC1)N1CCC(Cc2ccccc2)CC1 [Compound 3] | 4.2 µM (≈ 1.83 µg/mL) | 100% | 3.9 µM | 0.24 | – |
| O=C(COc1cccc(F)c1)Nc1nc(-c2ccccn2)cs1 [Compound 7] | – | 93% | – | 0.26 | IC50 [2, 5]: 50 µM |
| Br.CC1(C)NC(N)=NC(=N)N1OCCCOc1ccc(Cl)cc1Cl [BRL-51091am] | – | – | – | – | SPR Inhibition (%) [2, 6]: 41% |
